According to article PMC9501014, “Amaryllidaceae-Type Alkaloids from Pancratium maritimum: Apoptosis-Inducing Effect and Cell Cycle Arrest on Triple-Negative Breast Cancer Cells” (Molecules, 2022):

Legend:
HFF-1 cells = test: Sulforhodamine B antiproliferative assay, non-tumorigenic fibroblast HFF-1; assay type: cell-based; conditions: Homo sapiens, 48 h of treatment, read-out: IC50 HFF-1 (E)
Description: The antiproliferative effect of the isolated compounds (1–11) was investigated by the sulforhodamine B assay against human triple-negative breast cancer cell lines (MDA-MB-468 and MDA-MB-231) and breast ductal carcinoma cells (MCF-7) and the non-tumorigenic fibroblast (HFF-1) and breast cell lines (MCF12A). The IC50 values were determined after 48 h of treatment (Table 1).
Human breast adenocarcinoma MDA-MB-231, MDA-MB-468, and MCF-7 cell lines and non-tumorigenic foreskin fibroblast (HFF-1) and breast (MCF12A) cell lines were purchased from American Type Culture Collection (ATCC, Rockville, MD, USA). All cancer cell lines, except MCF12A, were routinely cultured in RPMI-1640 medium with glutamine from Corning (VWR, Carnaxide, Portugal) supplemented with 10% fetal bovine serum (FBS) from Biowest (Labclinics, Barcelona, Spain). MCF12A cells were cultured in a 1:1 mixture of Dulbecco’s modified Eagle’s medium and Ham’s F12 medium, 20 ng/mL human epidermal growth factor, 100 ng/mL cholera toxin, 0.01 mg/mL bovine insulin, and 500 ng/mL hydrocortisone and supplemented with 10% FBS. All cells were maintained in a humidified incubator at 37 °C with 5% CO2. All cells were routinely tested for mycoplasma contamination using the MycoAlertTM PLUS detection kit (Lonza, Basel, Switzerland).
Human cell lines were seeded in 96-well plates at a density of 5.0 × 10^3 (MDA-MB-231, MCF-7, HFF-1, and MCF12A) and 7.5 × 10^3 (MDA-MB-468) cells/well and allowed to adhere for 24 h. Cells were treated with serial dilutions of compounds (ranging from 0.1 to 40 μM) for an additional 48 h. Effect on cell proliferation was measured by sulforhodamine B assay, as described in [33], and the half-maximal inhibitory concentration (IC50) was then determined for each cell line using the GraphPad Prism software version 7.0 (La Jolla, CA, USA).

MDA-MB-231 cells = test: Cell cycle analysis by flow cytometry (PI); assay type: cell-based, human; conditions: 16 µM (2 × IC50), vs vehicle control; 24 h / 48 h
Description: To explore the ability of compound 7 to regulate cell cycle progression, the percentage of cells in different phases was analyzed after 24 h of exposure.
Figure 2 Compound 7 induced cell cycle arrest, apoptosis, and ROS production, in MDA-MB-231 cells. […] (B) Effect of 16 µM of compound 7 on cell cycle progression after 48 h of treatment in MDA-MB-231 cells; the percentage of cells in each phase of the cell cycle was analyzed by flow cytometry, using PI; data are mean ± SEM of three independent experiments. […] (C) Effect of 16 µM of compound 7 on apoptosis after 48 h of treatment; the percentage of Annexin-positive cells was analyzed by flow cytometry using PI and Annexin-V staining; data are mean ± SEM of three independent experiments. […] (F) The graph represents the quantification of protein expression levels relative to DMSO; data are mean ± SD of three independent experiments. The ability of compound 7 to induce apoptosis in this cell line was also assessed by cytometry, using the Annexin V-FITC assay after 48 h of treatment. […]
The analyses were performed basically as described in [33]. […] The cells were then analyzed by flow cytometry, and cell cycle phases were identified and quantified using the FlowJo × 10.0.7 Software (Treestar, Ashland, OR, USA). […]

With `COc1cc2c(cc1O)C(=O)OC1[C@@H](O)C=C3CCN(C)C3[C@]21O` (stereo partly drawn) [Compound 7, 2α-10bα-dihydroxy-9-O-demethylhomolycorine] the IC50 (HFF-1 cells) was 13.3 ± 3.28 µM and the cell cycle progression (MDA-MB-231 cells) was “significant accumulation of cells in the G2/M phase”.
